Test results published in ChEMBL document CHEMBL3588782, “Synthesis, antiribosomal and antibacterial activity of 4-O-glycopyranosyl paromomycin aminoglycoside antibiotics” (Medchemcomm, 2014).
Converted amounts (≈) assume the structure as drawn.

Experiments:
[1] = biological target: Bacterial 70S ribosome; experiment: Inhibition of Mycobacterium smegmatis ribosome containing wild type ribosomal RNA A-site in rabbit reticulocyte lysates assessed as reduction in ribosome-mediated protein synthesis in presence of S-30 extracts by fire fly luciferase synthesis based cell-free translation assay; design: species or system Mycolicibacterium smegmatis
[2] = Inhibition of Mycobacterium smegmatis ribosome containing ribosomal RNA A-site G1491C mutant in rabbit reticulocyte lysates assessed as reduction in ribosome-mediated protein synthesis in presence of S-30 extracts by fire fly luciferase synthesis based cell-free translation assay; design: species or system Mycolicibacterium smegmatis
[3] = Inhibition of Mycobacterium smegmatis ribosome containing ribosomal RNA A-site G1491A mutant in rabbit reticulocyte lysates assessed as reduction in ribosome-mediated protein synthesis in presence of S-30 extracts by fire fly luciferase synthesis based cell-free translation assay; design: species or system Mycolicibacterium smegmatis
[4] = Inhibition of Mycobacterium smegmatis ribosome containing ribosomal RNA A-site A1408G mutant in rabbit reticulocyte lysates assessed as reduction in ribosome-mediated protein synthesis in presence of S-30 extracts by fire fly luciferase synthesis based cell-free translation assay; design: species or system Mycolicibacterium smegmatis
[5] = biological target: 80S Ribosome; experiment: Inhibition of human ribosome containing eukaryotic wild type ribosomal RNA A-site in rabbit reticulocyte lysates assessed as reduction in ribosome-mediated protein synthesis in presence of S-30 extracts by fire fly luciferase synthesis based cell-free translation assay
[6] = Inhibition of human ribosome containing eukaryotic ribosomal RNA A-site A1555G mutant in rabbit reticulocyte lysates assessed as reduction in ribosome-mediated protein synthesis in presence of S-30 extracts by fire fly luciferase synthesis based cell-free translation assay
[7] = Inhibition of human ribosome containing eukaryotic ribosomal RNA A-site Cyt14 allele in rabbit reticulocyte lysates assessed as reduction in ribosome-mediated protein synthesis in presence of S-30 extracts by fire fly luciferase synthesis based cell-free translation assay
[8] = test system: Ribosome; experiment: Inhibition of ribosome-mediated protein synthesis in rabbit reticulocyte lysates in presence of S-30 extracts by fire fly luciferase synthesis based cell-free translation assay; design: species or system Oryctolagus cuniculus
[9] = test system: Staphylococcus aureus; experiment: Antibacterial activity against methicillin-resistant Staphylococcus aureus isolate AG 038 by broth microdilution assay; type: functional
[10] = test system: Staphylococcus aureus; experiment: Antibacterial activity against methicillin-resistant Staphylococcus aureus isolate AG 039 by broth microdilution assay; type: functional
[11] = test system: Staphylococcus aureus; experiment: Antibacterial activity against methicillin-resistant Staphylococcus aureus isolate AG 042 by broth microdilution assay; type: functional
[12] = test system: Staphylococcus aureus; experiment: Antibacterial activity against methicillin-resistant Staphylococcus aureus isolate AG 044 by broth microdilution assay; type: functional
[13] = test system: Escherichia coli; experiment: Antibacterial activity against Escherichia coli isolate 006 by broth microdilution assay; type: functional
[14] = test system: Escherichia coli; experiment: Antibacterial activity against Escherichia coli isolate 001 by broth microdilution assay; type: functional
[15] = test system: Escherichia coli; experiment: Antibacterial activity against Escherichia coli isolate 055 by broth microdilution assay; type: functional
[16] = test system: Escherichia coli; experiment: Antibacterial activity against Escherichia coli isolate 003 by broth microdilution assay; type: functional

SMILES	IC50 [1]	IC50 [2]	IC50 [3]	IC50 [4]	IC50 [5]	IC50 [6]	IC50 [7]	IC50 [8]	MIC [9]	MIC [10]	MIC [11]	MIC [12]	MIC [13]	MIC [14]	MIC [15]	MIC [16]
NC[C@@H]1O[C@H](O[C@H]2[C@@H](O)[C@H](O[C@@H]3[C@@H](O)[C@H](N)C[C@H](N)[C@H]3O[C@H]3O[C@H](CO)[C@@H](O)[C@H](O)[C@H]3N)O[C@@H]2CO)[C@H](N)[C@@H](O)[C@@H]1O [PAROMOMYCIN]	0.0487 µM	10.42 µg/mL	0.57 µg/mL	0.26 µg/mL	82.1 µM	5.83 µg/mL	10.39 µg/mL	9.78 µg/mL	4 µg/mL (≈ 6.5 µM)	> 256 µg/mL	> 256 µg/mL	4 µg/mL (≈ 6.5 µM)	2 µg/mL (≈ 3.25 µM)	16 µg/mL (≈ 26 µM)	8 µg/mL (≈ 13 µM)	8 µg/mL (≈ 13 µM)
CN[C@@H]1[C@@H](O[C@H]2O[C@H](CO)[C@@H](N)[C@H](O)[C@H]2O)O[C@H]2C[C@@H](N)[C@@H](O[C@H]3[C@H](O)[C@@H](O)[C@H](N)C[C@@H]3N)O[C@@H]2[C@@H]1O [APRAMYCIN]	0.111 µM	31.21 µg/mL	5 µg/mL	128.89 µg/mL	108 µM	26.06 µg/mL	49.17 µg/mL	23.77 µg/mL	8 µg/mL (≈ 14.8 µM)	8 µg/mL (≈ 14.8 µM)	8 µg/mL (≈ 14.8 µM)	16 µg/mL (≈ 29.7 µM)	4 µg/mL (≈ 7.41 µM)	16 µg/mL (≈ 29.7 µM)	8 µg/mL (≈ 14.8 µM)	8 µg/mL (≈ 14.8 µM)
NC[C@@H]1O[C@H](O[C@H]2[C@@H](O)[C@H](O[C@@H]3[C@@H](O)[C@H](N)C[C@H](N)[C@H]3O[C@H]3O[C@H](CO)[C@@H](O[C@@H]4O[C@H](CO)[C@@H](N)[C@H](O)[C@H]4O)[C@H](O)[C@H]3N)O[C@@H]2CO)[C@H](N)[C@@H](O)[C@@H]1O	0.373 µM	32.03 µg/mL	4.87 µg/mL	2.39 µg/mL	9.81 µM	17.38 µg/mL	21.43 µg/mL	32.41 µg/mL	32 µg/mL (≈ 41.2 µM)	> 64 µg/mL	> 64 µg/mL	32 µg/mL (≈ 41.2 µM)	16 µg/mL (≈ 20.6 µM)	> 64 µg/mL	> 64 µg/mL	> 64 µg/mL
NC[C@@H]1O[C@H](O[C@H]2[C@@H](O)[C@H](O[C@@H]3[C@@H](O)[C@H](N)C[C@H](N)[C@H]3O[C@H]3O[C@H](CO)[C@@H](O[C@@H]4O[C@H](CO)[C@H](O)[C@H](O)[C@H]4O)[C@H](O)[C@H]3N)O[C@@H]2CO)[C@H](N)[C@@H](O)[C@@H]1O	1.95 µM	623.16 µg/mL	78.05 µg/mL	36.46 µg/mL	182 µM	209.22 µg/mL	286.76 µg/mL	104.57 µg/mL	≥ 128 µg/mL	≥ 128 µg/mL	> 128 µg/mL	> 128 µg/mL	128 µg/mL (≈ 165 µM)	> 128 µg/mL	> 128 µg/mL	> 128 µg/mL
